Numbers after ± are expanded uncertainties.
Assays:
[1] = Crystal; for Normal melting temperature: DTA
[2] = xn = mol fraction of the nth substance listed; settings: 293 K, 101 kPa, Crystal, X-ray diffraction

| mass density ([1]; 293 K, 101.3 kPa, X-ray diffraction) | Normal melting temperature [1] | mass density ([2]; x1 = 0.15) | mass density ([2]; x1 = 0.3) | mass density ([2]; x1 = 0.45) | mass density ([2]; x1 = 0.6) | mass density ([2]; x1 = 0.75) | mass density ([2]; x1 = 0.9) | mass density ([2]; x1 = 1) | Structure (SMILES) |
| --- | --- | --- | --- | --- | --- | --- | --- | --- | --- |
| 5060 ± 2 kg/m3 | 738 ± 1 °C | – | – | – | – | – | – | – | [Br-].[Br-].[Ca+2] [calcium bromide] |
| – | – | 3536 ± 2 kg/m3 | 3836 ± 2 kg/m3 | 4112 ± 2 kg/m3 | 4371 ± 2 kg/m3 | 4628 ± 2 kg/m3 | 4861 ± 2 kg/m3 | 5060 ± 2 kg/m3 | [Br-].[Br-].[Ca+2] [calcium bromide] + [Ca+2].[Cl-].[Cl-] |
| – | 770 ± 1 °C | – | – | – | – | – | – | – | [Ca+2].[Cl-].[Cl-] [calcium chloride] |
